Measured values published in the supplement of paper PMC10307832.

Experiments:
Assay in all cases: relative viability (nuclei count vs DMSO), 5 days (fraction); higher = more cells survive
LCLC-97TM1 = test system: LCLC-97TM1
Summary of the method: (§1)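 Five library-drug doses in √10 steps were combined with a fixed anchor-drug dose, or a single drug was given alone, by pin tool to lung cancer cell lines in 1536-well plates the day after seeding. Nuclei were stained and counted after 5 days. Relative viability is the nuclei count in treated wells over that in vehicle wells, taken as the median of duplicate plates.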

NCI-H661 = test system: NCI-H661
Summary of the method: as §1

NCI-H650 = test system: NCI-H650
Summary of the method: as §1

H3255 = test system: H3255
Summary of the method: as §1

201T = test system: 201T
Summary of the method: as §1

PC-14 = test system: PC-14
Summary of the method: as §1

NCI-H1666 = test system: NCI-H1666
Summary of the method: as §1

NCI-H520 = test system: NCI-H520
Summary of the method: as §1

NCI-H1915 = test system: NCI-H1915
Summary of the method: as §1

EPLC-272H = test system: EPLC-272H
Summary of the method: as §1

RERF-LC-KJ = test system: RERF-LC-KJ
Summary of the method: as §1

NCI-H23 = test system: NCI-H23
Summary of the method: as §1

NCI-H2405 = test system: NCI-H2405
Summary of the method: as §1

COR-L 105 = test system: COR-L 105
Summary of the method: as §1

NCI-H647 = test system: NCI-H647
Summary of the method: as §1

NCI-H322M = test system: NCI-H322M
Summary of the method: as §1

NCI-H2087 = test system: NCI-H2087
Summary of the method: as §1

HCC-78 = test system: HCC-78
Summary of the method: as §1

HCC-827 = test system: HCC-827
Summary of the method: as §1

NCI-H2347 = test system: NCI-H2347
Summary of the method: as §1

ChaGo-K-1 = test system: ChaGo-K-1
Summary of the method: as §1

NCI-H2126 = test system: NCI-H2126
Summary of the method: as §1

LC-2-ad = test system: LC-2-ad
Summary of the method: as §1

O=C(O)c1ccc(-c2c[nH]c3ncc(-c4ccccc4)cc23)cc1C1CCCC1 + COc1cccc2cc(-c3nc([C@H]4CC[C@H](C(=O)O)CC4)n4ncnc(N)c34)[nH]c12 [OSI-027] (partner 0.5 µM)
relative viability (LCLC-97TM1; first compound 0.04 µM): 0.474
relative viability (LCLC-97TM1; first compound 0.1265 µM): 0.659
relative viability (LCLC-97TM1; first compound 0.4 µM): 0.518
relative viability (LCLC-97TM1; first compound 1.265 µM): 0.526
relative viability (NCI-H661; first compound 0.04 µM): 0.766
relative viability (NCI-H661; first compound 0.4 µM): 0.718
relative viability (NCI-H661; first compound 1.265 µM): 0.734
relative viability (NCI-H650; first compound 0.04 µM): 0.522
relative viability (NCI-H650; first compound 0.1265 µM): 0.6
relative viability (NCI-H650; first compound 0.4 µM): 0.485
relative viability (NCI-H650; first compound 1.265 µM): 0.457
relative viability (H3255; first compound 0.04 µM): 0.671
relative viability (H3255; first compound 0.1265 µM): 0.662
relative viability (H3255; first compound 0.4 µM): 0.554
relative viability (H3255; first compound 1.265 µM): 0.506
relative viability (201T; first compound 0.04 µM): 0.693
relative viability (201T; first compound 0.1265 µM): 0.682
relative viability (201T; first compound 1.265 µM): 0.716
relative viability (PC-14; first compound 0.04 µM): 0.759
relative viability (PC-14; first compound 0.1265 µM): 0.86
relative viability (PC-14; first compound 0.4 µM): 0.826
relative viability (PC-14; first compound 1.265 µM): 0.877
relative viability (NCI-H1666; first compound 0.04 µM): 0.846
relative viability (NCI-H1666; first compound 0.1265 µM): 0.884
relative viability (NCI-H1666; first compound 0.4 µM): 0.906
relative viability (NCI-H1666; first compound 1.265 µM): 0.624
relative viability (NCI-H520; first compound 0.04 µM): 0.23
relative viability (NCI-H520; first compound 0.1265 µM): 0.269
relative viability (NCI-H520; first compound 0.4 µM): 0.336
relative viability (NCI-H520; first compound 1.265 µM): 0.242
relative viability (NCI-H1915; first compound 0.04 µM): 0.629
relative viability (NCI-H1915; first compound 0.1265 µM): 0.638
relative viability (NCI-H1915; first compound 0.4 µM): 0.604
relative viability (NCI-H1915; first compound 1.265 µM): 0.545
relative viability (EPLC-272H; first compound 0.04 µM): 0.266
relative viability (EPLC-272H; first compound 0.1265 µM): 0.283
relative viability (EPLC-272H; first compound 0.4 µM): 0.292
relative viability (EPLC-272H; first compound 1.265 µM): 0.281
relative viability (RERF-LC-KJ; first compound 0.04 µM): 0.561
relative viability (RERF-LC-KJ; first compound 0.1265 µM): 0.598
relative viability (RERF-LC-KJ; first compound 0.4 µM): 0.582
relative viability (RERF-LC-KJ; first compound 1.265 µM): 0.527
relative viability (NCI-H23; first compound 0.04 µM): 0.599
relative viability (NCI-H23; first compound 0.1265 µM): 0.71
relative viability (NCI-H23; first compound 0.4 µM): 0.576
relative viability (NCI-H23; first compound 1.265 µM): 0.531
relative viability (NCI-H2405; first compound 0.04 µM): 0.653
relative viability (NCI-H2405; first compound 0.1265 µM): 0.626
relative viability (NCI-H2405; first compound 0.4 µM): 0.617
relative viability (NCI-H2405; first compound 1.265 µM): 0.605
relative viability (COR-L 105; first compound 0.04 µM): 0.635
relative viability (COR-L 105; first compound 0.1265 µM): 0.673
relative viability (COR-L 105; first compound 0.4 µM): 0.757
relative viability (COR-L 105; first compound 1.265 µM): 0.838
relative viability (NCI-H647; first compound 0.04 µM): 0.701
relative viability (NCI-H647; first compound 0.1265 µM): 0.716
relative viability (NCI-H647; first compound 0.4 µM): 0.669
relative viability (NCI-H647; first compound 1.265 µM): 0.574
relative viability (NCI-H322M; first compound 0.04 µM): 0.546
relative viability (NCI-H322M; first compound 0.1265 µM): 0.588
relative viability (NCI-H322M; first compound 0.4 µM): 0.674
relative viability (NCI-H322M; first compound 1.265 µM): 0.521
relative viability (NCI-H2087; first compound 0.04 µM): 0.563
relative viability (NCI-H2087; first compound 0.1265 µM): 0.673
relative viability (NCI-H2087; first compound 0.4 µM): 0.416
relative viability (NCI-H2087; first compound 1.265 µM): 0.47
relative viability (HCC-78; first compound 0.1265 µM): 0.396
relative viability (HCC-78; first compound 0.4 µM): 0.386
relative viability (HCC-78; first compound 1.265 µM): 0.327
relative viability (HCC-827; first compound 0.04 µM): 0.65
relative viability (HCC-827; first compound 0.1265 µM): 0.81
relative viability (HCC-827; first compound 0.4 µM): 0.725
relative viability (HCC-827; first compound 1.265 µM): 0.77
relative viability (NCI-H2347; first compound 0.04 µM): 0.451
relative viability (NCI-H2347; first compound 0.1265 µM): 0.392
relative viability (NCI-H2347; first compound 0.4 µM): 0.425
relative viability (NCI-H2347; first compound 1.265 µM): 0.367
relative viability (ChaGo-K-1; first compound 0.04 µM): 0.651
relative viability (ChaGo-K-1; first compound 0.1265 µM): 0.595
relative viability (ChaGo-K-1; first compound 0.4 µM): 0.532
relative viability (ChaGo-K-1; first compound 1.265 µM): 0.51
relative viability (NCI-H2126; first compound 0.04 µM): 0.749
relative viability (NCI-H2126; first compound 0.1265 µM): 0.732
relative viability (NCI-H2126; first compound 0.4 µM): 0.827
relative viability (NCI-H2126; first compound 1.265 µM): 0.618
relative viability (LC-2-ad; first compound 0.04 µM): 0.805
relative viability (LC-2-ad; first compound 0.1265 µM): 0.905
relative viability (LC-2-ad; first compound 0.4 µM): 0.757
relative viability (LC-2-ad; first compound 1.265 µM): 0.68
